Test results published in PubChem BioAssay AID179 (DTP/NCI, 2004).
Values joined by “and” are separate entries in the source; they are usually repeats but may differ in a detail not shown here. Identical values can stand only once. Active and inactive are the calls of the source.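 How the source made its calls: active means compounds giving half or more protection of infected cells from virus-caused growth loss, again on retest; inactive means the rest.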

System: CEM cells HIV-1 protection, formazan growth assay
Test: NCI AIDS Antiviral Assay
Details: for IC50: measured here: growth of uninfected CEM cells
How it was run: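 Five concentrations of each compound were applied to infected and uninfected human CEM cells. Protection from HIV-1 was judged from growth measured with a soluble formazan assay.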

Row | SMILES | EC50 | IC50 | outcome
1 | O=C1c2cc(Cc3ccccc3)c(=O)c(Cc3ccccc3)cc2C(=O)c2cc(Cc3ccccc3)c(=O)c(Cc3ccccc3)cc21 | > 200 µM | > 200 µM | 
2 | COC1=C(C)C(=O)C(=O)c2c(C)ccnc21 |  |  | inactive
3 | C[C@]12CCC3C(CC[C@H]4C/C(=C/C#N)CC[C@]34C)C1CC/C2=C\C#N (some centres not stated) | > 100 µM | 25.7 µM | 
4 | O=C(O)Cc1cccc(=O)c(O)c1C(=O)O | > 200 µM | 129 µM | 
5 | C=CCNC1=C2C[C@@H](C)C[C@@H](OC)[C@@H](OC(=O)CCCN)[C@H](C)/C=C(\C)[C@@H](OC(N)=O)[C@H](OC)/C=C\C=C(/C)C(=O)NC(=CC1=O)C2=O | > 200 µM | 5.5 µM | 
6 | CC1=CC2c3c(O)cc(-c4cc5ccc(O)cc5o4)cc3OC3(c4ccc(O)c5c4OC(C)(C)C=C5)Oc4cc(O)ccc4[C@H](C1)C23 (some centres not stated) | > 20.9 µM | 3.72 µM | 
7 | CN1CCN(CCSc2nccc(-c3cc4ccccc4s3)n2)CC1 | > 126 µM | 31.6 µM | 
8 | COc1cc2c(c(OC)c1OC)-c1ccc(OC)c(=O)cc1C(NC(=O)CCCCCNc1ccc(N=[N+]=[N-])cc1[N+](=O)[O-])CC2 (configuration not stated) | > 200 µM | 0.0631 µM | 
9 | O=C(O)CN(c1cccc(Cl)c1)S(=O)(=O)c1ccccc1 |  |  | inactive
10 | c1ccc2c(-c3csc(-c4c[nH]c5ccccc45)n3)c[nH]c2c1 | > 200 µM | 56.2 µM | 
11 | CCC[CH2][Sn]([CH2]CCC)([O]C(=O)Cc1ccc(F)cc1)[O]C(=O)Cc1ccc(F)cc1 | > 25.1 µM | 4.79 µM | 
12 | O=C1/C(=C/c2ccc(Cl)cc2)CNC/C1=C\c1ccc(Cl)cc1 | > 151 µM | 10.5 µM and 1.05 µM | 
13 | CCC(Cc1ccccc1)C1=NC(C)(C)CC(C)O1 (configuration not stated) | > 200 µM | 79.4 µM | 
14 | CCCCCCCCCCOc1cc2c(=O)c(C(=O)OCC)c[nH]c2cc1OCC | > 200 µM | > 200 µM | 
15 | Cc1ccc(SC23C=CC(CC24CCOC4=O)OC3=O)cc1 (configuration not stated) | > 200 µM | > 200 µM | 
16 | O=C(NC1C2CC3CC(C2)CC1C3)c1ccncn1 (configuration not stated) | > 513 µM | > 513 µM | 
17 | FC(F)(F)c1ccc(C2ON=C(c3ccccc3)N2C23CC4CC(CC(C4)C2)C3)cc1 (configuration not stated) | > 200 µM | > 200 µM | 
18 | COc1cc(O)c2c(=O)c(OC)c(-c3ccc4c(c3)OCO4)oc2c1 | > 200 µM | > 200 µM | 
19 | CCN1CCC2(CC1)OC(c1ccccc1)C(c1ccccc1)O2 (configuration not stated) | > 200 µM | 112 µM | 
20 | Cc1cccc2c(=O)c3c(O)cc4c(c3n(C)c12)C=CC(C)(C)O4 | > 200 µM | 14.8 µM | 
21 | CCCCCCCCC(=O)NCCCNCCCNC(=O)CCCCCCCC | > 100 µM | 10 µM | 
22 | OC1NC2CC3NC(O)C(O)NC3CC2NC1O (configuration not stated) | > 100 µM | > 100 µM | 

Row | SMILES | EC50 | IC50 | outcome
23 | Nc1nc(N)c(C2=CCNCC2)c(=O)[nH]1 | > 200 µM | > 200 µM | 
24 | CN1CCCC(C(=O)O)(c2ccccc2)CC1 (configuration not stated) |  |  | inactive
25 | Cc1ccc2c(c1)C(=O)/C(=C\c1ccccc1)CCS2(=O)=O | > 200 µM | 2.88 µM | 
26 | O=c1[nH]cnc2c1ncn2C1CCC2(CO)CC12 (configuration not stated) | > 50.1 µM | > 50.1 µM | 
27 | O=C(CCSSCCC(=O)ON1C(=O)CCC1=O)ON1C(=O)CCC1=O | > 200 µM | > 200 µM | 
28 | C1CN2N3CCCC23C1 (configuration not stated) | > 2000 µM | > 2000 µM | 
29 | NCCCCN(CCCN)Cc1ccccc1 |  |  | inactive
30 | CC1=C(C(=O)O)N2C(=O)[C@@H](NC(=O)C(c3ccc(O)cc3)N3CSC(=S)N(C(C)C)C3)C2SC1 (some centres not stated) | > 479 µM | 269 µM | 
31 | S=C(Nc1cccc2ccccc12)NN1CCCCCC1 | > 17.4 µM | > 17.4 µM | 
32 | COc1ccc(-c2onc(-c3c(C)cc(C)cc3C)c2C2=NCCN2)cc1 | > 72.4 µM | > 72.4 µM | 
33 | COc1cc2ccnc3c(=C(SC)SC)c(=O)c(c1OC)c23 |  |  | inactive
34 | N#C/C(=C\c1ccc(F)cc1)C(=O)c1ccccc1 | > 70.8 µM |  | 
35 | O=C(O)COc1ccc2c3c1C(=O)CCC3CO2 (configuration not stated) |  |  | inactive
36 | CCOC(=O)C(=CNC(=S)c1cccnc1)C(=O)OCC | > 200 µM | 17.8 µM | 
37 | Oc1cc(O)c2c(-c3c(O)c(-c4ccc(O)c(O)c4)[o+]c4cc(O)cc(O)c34)c(O)c(-c3ccc(O)c(O)c3)[o+]c2c1 |  |  | inactive
38 | Cc1cn(C(C)OCCN(OC(=O)Oc2ccccc2)C(=O)Oc2ccccc2)c(=O)[nH]c1=O (configuration not stated) | > 200 µM | > 200 µM | 
39 | COc1cc2cc3c4cc(OC)c(OC)cc4cc(C)[n+]3cc2cc1OC |  |  | inactive
40 | Brc1ccc(-c2ccc(-c3ccc(-c4ccc(Br)s4)s3)s2)s1 | > 200 µM | > 200 µM | 
41 | CN1CCN(CCCCN2c3ccccc3Sc3ccc(N=[N+]=[N-])cc32)CC1 | > 200 µM | 5.25 µM | 
42 | C1CCCCC/C2=C(\CCCC1)CSCCCS2 | > 200 µM | 58.9 µM | 
43 | CCOC(=O)c1c2ccccc2n2c(=O)n(-c3ccc(OC)cc3)nnc12 | > 57.5 µM | 32.4 µM | 
44 | O=S(=O)(O)c1cc(N=[N+]([O-])c2cc(S(=O)(=O)O)c3ccccc3c2)cc2ccccc12 | > 200 µM | 93.3 µM | 

Row | SMILES | EC50 | IC50 | outcome
45 | CC1=CC[C@@]2(C)CC[C@](O)(C(C)C)C2C(OC(=O)c2ccccc2)C1 (some centres not stated) | > 200 µM | 13.2 µM | 
46 | N#CCCN(CCC#N)c1ccc(/C=C2\N=C(c3ccccc3)N(c3ccc(Cl)cc3)C2=O)cc1 | > 200 µM | > 200 µM | 
47 | COc1cccc(C=O)c1[O-].COc1cccc(C=O)c1[O-].[Co+2] | > 186 µM | 28.2 µM | 
48 | C/C(CC(=O)Nc1cccc(C)c1C)=N\NC(N)=S | > 468 µM | 245 µM | 
49 | Cc1cc2c(=O)cc(-c3ccc(Cl)c(Cl)c3)oc2c(C(=O)O)c1C |  |  | inactive
50 | O=C(CSc1cc(-c2ccc(Cl)cc2)s[s+]1)c1ccccc1 | > 200 µM | 52.5 µM | 
51 | CN(C)N1C(=O)CC2(CCN(CCCC(=O)c3ccc(F)cc3)CC2)C1=O | > 200 µM | > 200 µM | 
52 | COc1ccc(/C=C/C(=O)c2c(-c3ccccc3)nn(C)c(=O)c2N2CCCC2)cc1 | > 67.6 µM | > 67.6 µM | 
53 | CC(C)Sc1nncc(/C(N)=N/O)n1 | > 200 µM | > 200 µM | 
54 | N#CCc1n[nH]c(Cc2ccccc2)n1 | > 200 µM | > 200 µM | 
55 | COC(=O)c1cc(C#N)[nH]c1-c1ccsc1 | > 200 µM | 30.9 µM | 
56 | O=C1C(C(c2ccc([N+](=O)[O-])cc2)N2CCOCC2)=C(O)C(c2ccccc2)N1c1ccccc1 (configuration not stated) | > 100 µM | 24.5 µM | 
57 | CCOC(=O)CC(=Nc1cc(C)on1)N(CC)CC | > 676 µM | > 676 µM | 
58 | C/C(=N\NS(=O)(=O)c1ccc(C)cc1)c1ccc[n+]([O-])n1 |  |  | inactive
59 | O=C1C=CC2(CCCCCCC2=O)CC1 (configuration not stated) |  |  | inactive
60 | COc1ccc(-n2c(=O)c3[nH]c(=S)[nH]c3n(-c3ccc(OC)cc3)c2=S)cc1 | > 200 µM | > 200 µM | 
61 | CN=C(NNc1ccc([N+](=O)[O-])cc1)P(=O)(OC(C)C)OC(C)C | > 7.24 µM | > 7.24 µM | 
62 | CC(=N\N)/C(C)=N/N=C(C)/C(C)=N/N=C(C)/C(C)=N/N=C(C)/C(C)=N/N | > 200 µM | 15.8 µM | 
63 | CCC(C)C(=O)c1c(O)c(CC2OC2(C)C)c(O)c2c(C(O)CC)cc(=O)oc12 (configuration not stated) | > 200 µM | 5.62 µM | 
64 | Cc1nn(C(=O)CC(=O)Nc2ccccc2)c(C)c1N=Nc1ccccc1F |  |  | inactive
65 | C/C(=C(/C)c1cc[n+](C)cc1)c1cc[n+](C)cc1 | > 11.2 µM | > 11.2 µM | 
66 | CCOC(=O)CCC(NC(=O)c1ccc(NC(OC)c2nc3cc(C(F)(F)F)ccc3nc2-c2ccccc2)cc1)C(=O)OCC (configuration not stated) | > 8.13 µM | > 8.13 µM | 

Row | SMILES | EC50 | IC50 | outcome
67 | [O-]c1c2cc(-[n+]3c(-c4ccccc4)cc(-c4ccccc4)cc3-c3ccccc3)cc1COCCOCCOCCOCCOC2 | > 200 µM | 36.3 µM | 
68 | CCCCCCCCCCCCCCCCCC(CCCCCCCCCCCCCCCCC)OP(=O)(O)O |  |  | inactive
69 | COC(=O)C1C(=O)CC[C@H]2CN3CCc4c([nH]c5ccccc45)C3CC12 (some centres not stated) | > 53.7 µM | > 53.7 µM | 
70 | CCOC(=S)SC1OC(COC(C)=O)C(OC(C)=O)C(OC(C)=O)C1OC(C)=O (configuration not stated) | > 200 µM | 35.5 µM | 
71 | CC(C)(C)[C@H]1CO[C@]2(c3ccccc3)[C@@H]3C[C@@H]3C(=O)N12 |  |  | inactive
72 | COc1ccc(S(=O)c2ccc(OC)cc2)cc1 | > 955 µM | 490 µM | 
73 | COC(=N)C12C(N)=NC(OC)(OC)C1(C#N)C21C(=O)N(c2ccccc2)N=C1C (configuration not stated) | > 200 µM | 97.7 µM | 
74 | CC(O)c1ccc(C(O)/C(=N\NC(=O)c2ccncc2)c2nc3ccc([N+](=O)[O-])cc3[nH]c2=O)cc1 (configuration not stated) | > 74.1 µM | 60.3 µM | 
75 | COC(=O)c1cc2cc3c(c(O)c2c(=O)o1)O[C@@]1(Oc2c(O)c4c(c(O)c2[C@H]1OC1CC(OC)C(O)C(C)O1)C(=O)C=C(OC)C4=O)[C@H](O)C3 (some centres not stated) | > 200 µM | 3.31 µM | 
76 | O=c1[nH]nc(-c2cccc([N+](=O)[O-])c2)[nH]1 | > 200 µM | 148 µM | 
77 | O=C(O)c1cccc2cccc(-c3c4ccc(=O)cc-4oc4cc(O)ccc34)c12 | 14.1 µM | 123 µM | 
78 | CN(C)C(c1ccccc1)C(O)c1ccccc1 (configuration not stated) |  |  | inactive
79 | O=c1oc2ccc(O)cc2c2ccccc12 | > 170 µM | 38 µM | 
80 | CCOC(=O)C(O)(NC(C)=O)C(F)(F)F (configuration not stated) | > 200 µM | > 200 µM | 
81 | Cn1c2c(c3ccccc31)CC(=O)N1CCCCC1C21OCCO1 (configuration not stated) | > 100 µM | > 100 µM | 
82 | N#Cc1c(C#N)c(-c2ccccc2)n(Cc2ccccc2)c1N | > 200 µM | > 200 µM | 
83 | COC1=C(C)C(=O)c2nc(C)ccc2C1=O |  |  | inactive
84 | CC(=O)CC12NC(=O)N(C)N=C1N(C)C(=O)N(C)C2=O (configuration not stated) | > 200 µM | 10.7 µM | 
85 | C[n+]1c(-c2ccc(/C=N/NC(=S)N/N=C/c3ccc(-c4cn5ccccc5[n+]4C)cc3)cc2)cn2ccccc21 | > 39.8 µM | 21.9 µM | 
86 | Cc1ccc(/C=C2\CCCC(C(NO)c3ccc(C)cc3)C2=NO)cc1 (configuration not stated) | > 5.75 µM | > 5.75 µM | 
87 | C/C=C/C=C\C=C/C(O)CC(OP(=O)(O)O)C(C)(O)/C=C/C1CC=CC(=O)O1 (configuration not stated) | > 575 µM | 33.1 µM | 
